Experimental data taken from ChEMBL document CHEMBL1201862, “PubChem BioAssay data set” (2004).
Active and inactive are the calls of the source.

Legend:
[1] = luciferase reporter signal suppression in cells – H4 neuroglioma cells, luminescence, dose response (AID 1990); type: functional, cell-based
[2] = Luminescence Cell-Based Dose Response HTS to Identify Inhibitors of 5'UTR Stem-Loop Driven Prion Protein mRNA Translation in H4 Neuroglioblastoma Cells. [Related pubchem assays: 1827 (Project Summary), 1813 (Primary HTS)]; type: functional
[3] = alpha-synuclein stem-loop luciferase translation blockers – H4 neuroglioma cells, luminescence, confirmation (AID 1988); type: functional, cell-based
[4] = biological target: Cytochrome P450 2D6 (Homo sapiens, UniProt P10635);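 further: CYP2D6 member of a cytochrome P450 panel assay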
Sequence of Cytochrome P450 2D6 (P10635 whole entry): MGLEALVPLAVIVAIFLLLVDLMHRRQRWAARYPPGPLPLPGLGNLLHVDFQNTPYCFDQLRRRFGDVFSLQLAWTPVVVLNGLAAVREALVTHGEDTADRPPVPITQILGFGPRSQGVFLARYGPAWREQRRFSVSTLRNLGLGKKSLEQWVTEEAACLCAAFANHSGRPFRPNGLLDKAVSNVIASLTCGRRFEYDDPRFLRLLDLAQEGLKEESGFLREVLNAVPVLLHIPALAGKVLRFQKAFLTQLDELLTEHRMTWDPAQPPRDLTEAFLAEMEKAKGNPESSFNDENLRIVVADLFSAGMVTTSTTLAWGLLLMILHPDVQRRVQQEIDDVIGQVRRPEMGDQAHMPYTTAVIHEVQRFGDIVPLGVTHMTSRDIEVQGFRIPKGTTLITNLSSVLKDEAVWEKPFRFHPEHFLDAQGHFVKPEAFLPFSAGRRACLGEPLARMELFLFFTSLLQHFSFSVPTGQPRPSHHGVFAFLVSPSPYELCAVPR

[5] = biological target: T1, Cytochrome P450 1A2 (Homo sapiens, UniProt P05177);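 further: PubChem cytochrome P450 panel assay, CYP1A2 panel member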
T1 sequence (P05177 whole entry): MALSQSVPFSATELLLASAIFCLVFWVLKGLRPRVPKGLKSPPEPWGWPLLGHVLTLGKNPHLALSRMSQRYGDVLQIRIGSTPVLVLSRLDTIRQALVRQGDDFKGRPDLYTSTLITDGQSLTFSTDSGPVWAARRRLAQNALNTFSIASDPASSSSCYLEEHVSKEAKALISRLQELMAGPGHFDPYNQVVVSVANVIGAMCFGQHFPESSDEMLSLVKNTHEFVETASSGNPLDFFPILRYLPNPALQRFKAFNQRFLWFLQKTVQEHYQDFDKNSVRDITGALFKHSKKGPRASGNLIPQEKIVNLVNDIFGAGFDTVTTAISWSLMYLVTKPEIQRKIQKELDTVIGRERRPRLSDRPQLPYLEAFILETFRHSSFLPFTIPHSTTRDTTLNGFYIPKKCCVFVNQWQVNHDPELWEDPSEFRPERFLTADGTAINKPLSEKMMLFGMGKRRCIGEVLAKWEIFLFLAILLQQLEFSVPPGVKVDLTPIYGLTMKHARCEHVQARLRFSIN

[6] = system: H9c2; assay: cells; type: functional, cell-based; conditions: Rattus norvegicus, H9c2, Myocardium;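 further: confirmatory concentration-response retest of ultra-high-throughput screening hits for modulation of myocardial damage; cell death induced by hydrogen peroxide oxidative stress; compound pretreatment for 60 min then peroxide exposure for 2 h; potency is for protecting the cells against peroxide damage rather than for killing them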
[7] = microbe, parasite or virus in culture; type: functional; conditions: Mycobacterium tuberculosis
[8] = Trypanosoma cruzi growth suppression in host cells – NIH3T3 host cells, beta-gal luminescence, confirmation (AID 2044); type: functional, cell-based;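 further: intracellular parasites grown in NIH/3T3 mouse fibroblasts as host cells; luminescent beta-galactosidase reporter signal from transgenic T. cruzi replicating inside host cells; inhibitors lower the luminescence signal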
[9] = NIH3T3 cell viability loss – ATP luminescence, mouse fibroblasts, counter-screen, dose response (AID 2010); type: functional, cell-based;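 further: cells exposed to compound for about 90 hours before reading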
[10] = biological target: Cytochrome P450 2C19 (Homo sapiens, UniProt P33261); assay: Cytochrome panel assay with activity outcomes. Panel member name: p450-cyp2c19 Compounds with AC50 equal or less than 10 uM are considered active; type: functional; conditions: read-out: AC50
Sequence of Cytochrome P450 2C19 (P33261 whole entry): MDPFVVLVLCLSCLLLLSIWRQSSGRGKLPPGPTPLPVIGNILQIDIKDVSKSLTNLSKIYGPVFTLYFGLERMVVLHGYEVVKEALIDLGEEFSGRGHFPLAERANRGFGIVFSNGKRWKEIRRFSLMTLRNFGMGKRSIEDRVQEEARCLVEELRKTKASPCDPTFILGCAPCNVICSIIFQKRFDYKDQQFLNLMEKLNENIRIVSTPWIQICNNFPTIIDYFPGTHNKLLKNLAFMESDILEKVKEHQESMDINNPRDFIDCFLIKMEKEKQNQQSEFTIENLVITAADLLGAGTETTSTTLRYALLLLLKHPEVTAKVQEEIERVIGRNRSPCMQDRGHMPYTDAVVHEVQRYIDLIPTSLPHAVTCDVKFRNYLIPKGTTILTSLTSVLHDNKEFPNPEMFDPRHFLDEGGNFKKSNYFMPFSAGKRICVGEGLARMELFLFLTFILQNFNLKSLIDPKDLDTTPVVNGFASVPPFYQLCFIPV

[11] = biological target: Cytochrome P450 3A4 (Homo sapiens, UniProt P08684);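 further: CYP3A4 tested as one member of a cytochrome P450 panel screen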
Sequence of Cytochrome P450 3A4 (P08684 whole entry): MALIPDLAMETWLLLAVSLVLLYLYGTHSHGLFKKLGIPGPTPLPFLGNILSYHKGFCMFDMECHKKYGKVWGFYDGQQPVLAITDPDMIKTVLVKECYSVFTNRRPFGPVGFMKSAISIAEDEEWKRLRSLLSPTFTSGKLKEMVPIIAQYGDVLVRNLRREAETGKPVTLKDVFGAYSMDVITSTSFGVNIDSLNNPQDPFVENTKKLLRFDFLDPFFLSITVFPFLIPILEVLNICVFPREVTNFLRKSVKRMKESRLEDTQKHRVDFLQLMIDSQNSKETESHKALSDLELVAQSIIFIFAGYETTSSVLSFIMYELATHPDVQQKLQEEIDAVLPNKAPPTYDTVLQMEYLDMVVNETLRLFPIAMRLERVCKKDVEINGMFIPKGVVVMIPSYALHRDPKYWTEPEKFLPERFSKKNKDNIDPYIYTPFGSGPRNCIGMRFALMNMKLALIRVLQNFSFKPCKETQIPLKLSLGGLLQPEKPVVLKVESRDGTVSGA

[12] = biological target: Cytochrome P450 2C9 (Homo sapiens, UniProt P11712)
Sequence of Cytochrome P450 2C9 (P11712 whole entry): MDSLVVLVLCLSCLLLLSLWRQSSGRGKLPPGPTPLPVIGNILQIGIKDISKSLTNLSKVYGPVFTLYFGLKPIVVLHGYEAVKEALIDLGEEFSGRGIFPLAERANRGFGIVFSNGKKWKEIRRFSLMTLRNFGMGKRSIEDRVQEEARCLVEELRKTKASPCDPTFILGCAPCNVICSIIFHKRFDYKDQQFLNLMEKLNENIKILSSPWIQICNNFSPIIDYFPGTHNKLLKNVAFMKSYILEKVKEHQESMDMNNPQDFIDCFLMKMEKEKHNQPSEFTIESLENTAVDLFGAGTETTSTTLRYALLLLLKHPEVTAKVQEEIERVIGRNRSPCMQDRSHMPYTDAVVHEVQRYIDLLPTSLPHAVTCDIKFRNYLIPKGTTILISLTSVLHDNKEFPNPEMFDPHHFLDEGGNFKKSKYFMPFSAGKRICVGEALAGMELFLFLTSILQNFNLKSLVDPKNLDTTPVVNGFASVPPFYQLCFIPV

[13] = NIH-3T3 fibroblast cytotoxicity, dose response, cytotoxicity control, cell-based, fluorescence, Alamar Blue, secondary assay (AID 2327); type: functional;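 further: NIH-3T3 mouse fibroblasts cultured with fluconazole at 8 µg/mL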
[14] = fluconazole-exposed Candida albicans growth modulators – fluorescence, retest, confirmation (AID 2467); type: functional, cell-based

## Cc1nn(Cc2ccccc2Cl)c(C)c1NC(=O)CCCn1nc(C)c([N+](=O)[O-])c1C
[1]
  EC50: 21 µM (active)
[2]
  EC50: > 120 µM (not active)
[3]
  EC50: > 120 µM (not active)

## CC(=O)c1cccc(NC(=O)CN2C(=O)COc3ccc(S(=O)(=O)N4CCOCC4)cc32)c1
[1]
  EC50: > 120 µM (not active)
[2]
  EC50: > 120 µM (not active)
[3]
  EC50: > 120 µM (not active)

## COc1ccc(OC)c(NC(=O)CN2C(=O)CSc3ccc(S(=O)(=O)N4CCCC4)cc32)c1
[1]
  EC50: > 120 µM (not active)
[2]
  EC50: > 120 µM (not active)
[3]
  EC50: > 120 µM (not active)

## Cn1cc(-c2nc3cnc(N4CCNCC4)nc3n(Cc3ccc(F)cc3)c2=O)c2ccccc21
[4]
  AC50: 20 µM (inconclusive)
[5]
  AC50: 20 µM (inconclusive)

## COc1ccc(Cl)cc1N(CC(=O)Nc1ccccc1C(=O)NCc1ccco1)S(C)(=O)=O
[1]
  EC50: > 120 µM (not active)
[2]
  EC50: > 120 µM (not active)
[3]
  EC50: > 120 µM (not active)

## COc1ccccc1-n1c(SCC(=O)Nc2ccccc2F)nc2nncc-2c1O
[4]
  AC50: 8.91 µM (inconclusive)
[5]
  AC50: 28.2 µM (inconclusive)

## N#Cc1ccc(-c2ccc(F)cc2)nc1Oc1ccc(F)cc1
[1]
  EC50: > 120 µM (not active)
[2]
  EC50: 22.6 µM (active)
[3]
  EC50: > 120 µM (not active)

## CC(=O)Nc1cccc(NC(=O)c2cc(-c3cccnc3)nc3ccc(Cl)cc23)c1
[6]
  IC50: > 79 µM (inactive)

## CCOP(=O)(OCC)c1nc(-c2ccc(Cl)cc2Cl)oc1N1CCCCC1
[1]
  EC50: > 120 µM (not active)
[2]
  EC50: > 120 µM (not active)
[3]
  EC50: 20.3 µM (active)

## O=C(COc1ccc(Oc2ccccc2)cc1)NCc1cn2ccccc2n1
[1]
  EC50: 12.7 µM (active)
[2]
  EC50: 14.8 µM (active)
[3]
  EC50: 8.5 µM (active)

## CCCCCn1nc(C(=O)OCC(=O)c2c(N)n(C)c(=O)n(C)c2=O)c2ccccc2c1=O
[6]
  IC50: > 79 µM (inactive)

## O=C(CSc1ccc(Cl)cc1)N1CCC(c2nc3ccccc3s2)CC1
[7]
  CC50: 34.7 µM (active)

## O=C(CN1CCCCC1)Nc1nc(-c2ccc(F)c(F)c2)cs1
[6]
  IC50: > 79 µM (inactive)

## OC(c1ccccc1)(c1ccc(F)cc1)C(c1ccccc1)N1CCOCC1 (configuration not stated)
[4]
  AC50: 14.1 µM (inconclusive)

## COc1ccccc1-n1c2nc3ccccc3nc2c2c(=O)n(-c3cc(C)cc(C)c3)cnc21
[1]
  EC50: > 120 µM (not active)
[2]
  EC50: 0.528 µM (active)
[3]
  EC50: > 120 µM (not active)

## Cn1c(C(=O)NCCc2ccsc2)cc2c(=O)n(C)c3ccccc3c21
[6]
  IC50: > 79 µM (inactive)

## Cn1cccc1C(=O)N1CCC2(CC1)CN(Cc1cc(C(F)(F)F)cc(C(F)(F)F)c1)C2
[4]
  AC50: 25.1 µM (inconclusive)
[5]
  AC50: 10 µM (inconclusive)

## Clc1nc2c(-c3ccccc3)nnn2c2ccccc12
[8]
  EC50: 2.55 µM (active)
[7]
  CC50: 27.3 µM (active)
[9]
  EC50: > 60 µM (not active)

## CCOC(=O)C(Cc1ccc(NC(=O)/C(=C/c2ccc(OC(C)=O)cc2)NC(C)=O)cc1)N1C(=O)c2ccccc2C1=O (configuration not stated)
[6]
  IC50: > 79 µM (inactive)

## O=C(CCCSc1nc(O)c2c3c(sc2n1)CCC3)NCCO
[6]
  IC50: > 79 µM (inactive)

## CC1CCc2cc(F)ccc2N1C(=O)CSc1n[nH]c2c3cc(F)ccc3nc-2n1 (configuration not stated)
[10]
  AC50: 562 nM (inconclusive)
[4]
  AC50: 14.1 µM (inconclusive)

## C/C(CCN1CCCCc2nc(C)c(C)cc21)=N\OC[C@@H](O)COCc1ccco1
[4]
  AC50: 7.94 µM (inconclusive)

## O=C(Cc1ccccc1[N+](=O)[O-])NCCSCc1c(F)cccc1Cl
[4]
  AC50: 2.82 µM (inconclusive)
[5]
  AC50: 5.62 µM (inconclusive)

## COc1cccc(C(=O)Nc2cc(C)c3c(=O)oc4ccccc4c3n2)c1
[6]
  IC50: > 79 µM (inactive)

## O=C(C1CCN(c2nc(-c3ccccc3)nc3c2CCC3)CC1)N1CCCC1
[1]
  EC50: > 120 µM (not active)
[2]
  EC50: 24.7 µM (active)
[3]
  EC50: 16.7 µM (active)

## O=C(C1=C[C@@H](c2csc3ccccc23)C[C@@H](OCc2ccc(CO)cc2)O1)N1CCN(Cc2ccc3c(c2)OCO3)CC1
[1]
  EC50: 11.3 µM (active)
[2]
  EC50: > 120 µM (not active)
[3]
  EC50: 9.17 µM (active)

## NC(=O)/C(=C\c1ccncc1)c1cccc2ccccc12
[4]
  AC50: 2 µM (inconclusive)

## Cc1ccc(S(=O)(=O)N2CCN(C(=O)CCc3nc(O)c4ccccc4n3)CC2)c(C)c1
[6]
  IC50: > 79 µM (inactive)

## CCOC(=O)Cc1csc(NC(=O)c2c(O)c3c(n(CC(C)C)c2=O)CCCC3)n1
[7]
  CC50: > 40 µM (active)

## COc1cccc(Nc2nc3ccccc3n3nnnc23)c1
[6]
  IC50: > 79 µM (inactive)

## COC(=O)COc1ccc(-c2nccc(-c3ccccn3)n2)cc1
[1]
  EC50: < 0.1 µM (active)
[2]
  EC50: 7.98 µM (active)
[3]
  EC50: 0.159 µM (active)

## Fc1ccc(Nc2ccnc(-c3ccoc3)n2)cc1
[4]
  AC50: 20 µM (inconclusive)

## CN1CC[C@@]2(CCCN(C(=O)c3ccco3)C2)C1
[11]
  AC50: 20 µM (inconclusive)
[4]
  AC50: 20 µM (inconclusive)

## O=C(c1ccccc1)c1c[nH]c(C(=O)NCc2cccnc2)c1
[4]
  AC50: 15.8 µM (inconclusive)

## O=C(C[C@H]1C/C=C\CC[C@H](Cc2ccc(F)cc2)C(=O)O[C@@H](c2ccccc2)CNC1=O)N[C@H](CO)Cc1ccccc1
[6]
  IC50: > 79 µM (inactive)

## CCn1nc(C(=O)NNC(=O)c2cc(Cl)ccc2OC)c2ccccc2c1=O
[6]
  IC50: > 79 µM (inactive)

## CC(NC(=O)Cc1ccc(F)cc1)c1ccccc1 (configuration not stated)
[11]
  AC50: 25.1 µM (inconclusive)
[4]
  AC50: 15.8 µM (inconclusive)
[12]
  AC50: 10 µM (inconclusive)

## Cc1ccc(NC(=O)CSC(C)C(=O)OCc2cc(=O)oc3cc(O)ccc23)cc1 (configuration not stated)
[6]
  IC50: > 79 µM (inactive)

## Cc1ccc2nc(N/N=C/c3ccccc3C#N)nc(-c3ccccc3)c2c1
[7]
  CC50: 28.8 µM (active)

## Cc1nn(-c2ccccc2)c(N2CCCC2)c1/C=N/NC(=O)c1ccccc1O
[13]
  EC50: > 150 µM (inactive)
[1]
  EC50: 29.2 µM (active)
[2]
  EC50: > 120 µM (not active)
[3]
  EC50: 27.3 µM (active)
[14]
  EC50: > 38 µM (not active)

## C/C(=N\Nc1ccc(S(=O)(=O)N2CCCCC2)cn1)c1cccc(Br)c1
[7]
  CC50: > 40 µM (active)
